Reference: ChEMBL document CHEMBL1134804, “Studies leading to the identification of ZD1839 (IRESSA): an orally active, selective epidermal growth factor receptor tyrosine kinase inhibitor targeted to the treatment of cancer” (Bioorg Med Chem Lett, 2001)

Experiments:
in vivo = details: mouse, po, 200 mg/kg
[1] = molecular target: Epidermal growth factor receptor (Homo sapiens, UniProt P00533);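 also: tyrosine kinase inhibition of EGFR isolated from A431 vulval squamous carcinoma cells, measured in vitro with a TKI assay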
Description: In vitro inhibitory activity against Epidermal growth factor receptor (EGFR-TK) from A431 vulval squamous carcinoma cells using TKI assay

KB 3-1 = assay: cells; details: Homo sapiens
Description: In vitro inhibitory activity against EGF-stimulated proliferation of KB2 cells in culture

Chain of Epidermal growth factor receptor (P00533 whole entry): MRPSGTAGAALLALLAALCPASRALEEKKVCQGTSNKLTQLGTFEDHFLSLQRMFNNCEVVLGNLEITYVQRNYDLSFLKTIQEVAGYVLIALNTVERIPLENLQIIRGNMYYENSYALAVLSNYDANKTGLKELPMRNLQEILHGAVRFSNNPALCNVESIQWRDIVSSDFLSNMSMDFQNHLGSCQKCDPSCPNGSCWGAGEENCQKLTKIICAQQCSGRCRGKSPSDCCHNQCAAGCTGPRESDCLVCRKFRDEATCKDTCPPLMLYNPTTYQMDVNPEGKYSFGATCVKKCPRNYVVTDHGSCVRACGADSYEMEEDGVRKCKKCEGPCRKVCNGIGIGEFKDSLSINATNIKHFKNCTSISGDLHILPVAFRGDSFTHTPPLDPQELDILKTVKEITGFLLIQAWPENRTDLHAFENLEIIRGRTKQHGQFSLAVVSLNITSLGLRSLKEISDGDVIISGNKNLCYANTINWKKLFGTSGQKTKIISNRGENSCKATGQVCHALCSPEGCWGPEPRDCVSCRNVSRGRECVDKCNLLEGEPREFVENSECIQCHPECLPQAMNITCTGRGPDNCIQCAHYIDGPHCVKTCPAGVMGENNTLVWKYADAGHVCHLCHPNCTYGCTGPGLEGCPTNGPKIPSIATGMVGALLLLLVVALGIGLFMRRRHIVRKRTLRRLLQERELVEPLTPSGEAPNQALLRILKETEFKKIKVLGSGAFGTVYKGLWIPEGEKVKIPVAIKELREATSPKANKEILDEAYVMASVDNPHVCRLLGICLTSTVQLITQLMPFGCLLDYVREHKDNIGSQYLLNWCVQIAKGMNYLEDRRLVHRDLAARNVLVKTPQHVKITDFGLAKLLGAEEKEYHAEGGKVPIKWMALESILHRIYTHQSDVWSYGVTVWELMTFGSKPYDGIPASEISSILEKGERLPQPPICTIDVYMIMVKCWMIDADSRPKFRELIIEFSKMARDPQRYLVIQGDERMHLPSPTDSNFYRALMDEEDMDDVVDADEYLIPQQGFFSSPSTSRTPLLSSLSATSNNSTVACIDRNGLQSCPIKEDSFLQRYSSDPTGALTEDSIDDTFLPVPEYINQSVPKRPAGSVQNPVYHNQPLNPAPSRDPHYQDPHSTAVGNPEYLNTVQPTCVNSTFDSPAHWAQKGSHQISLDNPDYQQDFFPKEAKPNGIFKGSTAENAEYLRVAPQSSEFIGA

With `COc1cc2ncnc(Nc3ccc(F)c(Cl)c3)c2cc1OCC(O)CN` (stereo not drawn) the concentration at 6 h (in vivo) was 0.1 µM.
Work on `COc1cc2ncnc(Nc3ccc(F)c(Cl)c3)c2cc1OCCn1ccnc1` yielded a concentration at 6 h (in vivo) of 164 µM.
With `COc1cc2ncnc(Nc3ccc(F)c(Cl)c3)c2cc1OC[C@@H](O)CN1CCOCC1` the IC50 [1] was 95 nM, the IC50 (KB 3-1) was 160 nM and the concentration at 6 h (in vivo) was 23 µM.
For `COc1cc2ncnc(Nc3ccc(F)c(Cl)c3)c2cc1OCCCN1CCCCC1`, the concentration at 6 h (in vivo) was 5.2 µM.
`COc1cc2ncnc(Nc3ccc(F)c(Cl)c3)c2cc1OCCCN(C)C` gave a concentration at 6 h (in vivo) of 34 µM.
Compound `COc1cc2ncnc(Nc3ccc(F)c(Cl)c3)c2cc1OCCN1CCOCC1` has an IC50 (KB 3-1) of 380 nM and a concentration at 6 h (in vivo) of 156 µM.
With `COc1cc2ncnc(Nc3ccc(F)c(Cl)c3)c2cc1OCCN1CCCC1` the concentration at 6 h (in vivo) was 8.2 µM.
Compound `CNCC(O)COc1cc2c(Nc3ccc(F)c(Cl)c3)ncnc2cc1OC` (stereo not drawn) has an IC50 [1] of 5 nM and an IC50 (KB 3-1) of 220 nM.
`COc1cc2ncnc(Nc3ccc(F)c(Cl)c3)c2cc1OCCN1CCCCC1` showed a concentration at 6 h (in vivo) of 16 µM.
With `COc1cc2ncnc(Nc3ccc(F)c(Cl)c3)c2cc1OC` the concentration at 6 h (in vivo) was 16 µM.
Compound `COc1cc2ncnc(Nc3ccc(F)c(Cl)c3)c2cc1OCCNC(C)(CO)CO` has an IC50 [1] of 69 nM, an IC50 (KB 3-1) of 910 nM and a concentration at 6 h (in vivo) of 0.1 µM.
Compound `CNCCOc1cc2c(Nc3ccc(F)c(Cl)c3)ncnc2cc1OC` has an IC50 [1] of 8 nM, an IC50 (KB 3-1) of 350 nM and a concentration at 6 h (in vivo) of 1.6 µM.
`COc1cc2ncnc(Nc3ccc(F)c(Cl)c3)c2cc1OCCNCCN(C)C` gave an IC50 [1] of 2 nM, an IC50 (KB 3-1) of 150 nM and a concentration at 6 h (in vivo) of 1.1 µM.
For `COc1cc2ncnc(Nc3ccc(F)c(Cl)c3)c2cc1OCCN(CCO)CCO`, the IC50 [1] was 35 nM, the IC50 (KB 3-1) was 460 nM and the concentration at 6 h (in vivo) was 1 µM.
Work on `CCN(CC)CCCOc1cc2c(Nc3ccc(F)c(Cl)c3)ncnc2cc1OC` yielded a concentration at 6 h (in vivo) of 5.4 µM.
Compound `COc1cc2ncnc(Nc3ccc(F)c(Cl)c3)c2cc1OCCCN1CCCC1` has a concentration at 6 h (in vivo) of 8.8 µM.
`COc1cc2ncnc(Nc3ccc(F)c(Cl)c3)c2cc1OCCN1CCN(C)CC1` showed an IC50 (KB 3-1) of 90 nM and a concentration at 6 h (in vivo) of 7.1 µM.
With `COc1cc2ncnc(Nc3ccc(F)c(Cl)c3)c2cc1OCCNC(C)C` the IC50 [1] was 310 nM, the IC50 (KB 3-1) was 220 nM and the concentration at 6 h (in vivo) was 0.4 µM.
For `COc1cc2ncnc(Nc3cccc(C)c3)c2cc1OC`, the IC50 (KB 3-1) was 50 nM.
Work on `COc1cc2ncnc(Nc3ccc(F)c(Cl)c3)c2cc1OCC(O)CN(CCO)CCO` (stereo not drawn) yielded an IC50 [1] of 5 nM, an IC50 (KB 3-1) of 850 nM and a concentration at 6 h (in vivo) of 0.2 µM.
Compound `COc1cc2ncnc(Nc3ccc(F)c(Cl)c3)c2cc1OCCNC(C)(C)C` has an IC50 [1] of 100 nM, an IC50 (KB 3-1) of 320 nM and a concentration at 6 h (in vivo) of 0.1 µM.
Work on `COCCN(CCOC)CCOc1cc2c(Nc3ccc(F)c(Cl)c3)ncnc2cc1OC` yielded an IC50 [1] of 61 nM, an IC50 (KB 3-1) of 170 nM and a concentration at 6 h (in vivo) of 7.2 µM.
Work on `COc1cc2ncnc(Nc3ccc(F)c(Cl)c3)c2cc1OCCN(C)C` yielded an IC50 [1] of 7 nM, an IC50 (KB 3-1) of 120 nM and a concentration at 6 h (in vivo) of 52 µM.
Work on `COc1cc2ncnc(Nc3ccc(F)c(Cl)c3)c2cc1OCC(O)Cn1ccnc1` (stereo not drawn) yielded an IC50 [1] of 8 nM, an IC50 (KB 3-1) of 380 nM and a concentration at 6 h (in vivo) of 0.04 µM.
`COc1cc2ncnc(Nc3ccc(F)c(Cl)c3)c2cc1OC[C@H](O)CN1CCOCC1` showed an IC50 [1] of 67 nM, an IC50 (KB 3-1) of 130 nM and a concentration at 6 h (in vivo) of 15 µM.
`COCCNCCOc1cc2c(Nc3ccc(F)c(Cl)c3)ncnc2cc1OC` showed an IC50 [1] of 8 nM, an IC50 (KB 3-1) of 180 nM and a concentration at 6 h (in vivo) of 11 µM.
Compound `CCN(CC)CCOc1cc2c(Nc3ccc(F)c(Cl)c3)ncnc2cc1OC` has an IC50 [1] of 93 nM, an IC50 (KB 3-1) of 310 nM and a concentration at 6 h (in vivo) of 2.8 µM.
